The target of data set [1] is T1, ER-α (Homo sapiens, UniProt P03372).
T1 construct: we transfected ER-α–positive breast cancer MCF-7 cells; endogenous in cells; host or cells: MELN (MCF-7 stably transfected with ERE-βGlob-Luc-SVNeo)
T1 sequence (P03372 1-595): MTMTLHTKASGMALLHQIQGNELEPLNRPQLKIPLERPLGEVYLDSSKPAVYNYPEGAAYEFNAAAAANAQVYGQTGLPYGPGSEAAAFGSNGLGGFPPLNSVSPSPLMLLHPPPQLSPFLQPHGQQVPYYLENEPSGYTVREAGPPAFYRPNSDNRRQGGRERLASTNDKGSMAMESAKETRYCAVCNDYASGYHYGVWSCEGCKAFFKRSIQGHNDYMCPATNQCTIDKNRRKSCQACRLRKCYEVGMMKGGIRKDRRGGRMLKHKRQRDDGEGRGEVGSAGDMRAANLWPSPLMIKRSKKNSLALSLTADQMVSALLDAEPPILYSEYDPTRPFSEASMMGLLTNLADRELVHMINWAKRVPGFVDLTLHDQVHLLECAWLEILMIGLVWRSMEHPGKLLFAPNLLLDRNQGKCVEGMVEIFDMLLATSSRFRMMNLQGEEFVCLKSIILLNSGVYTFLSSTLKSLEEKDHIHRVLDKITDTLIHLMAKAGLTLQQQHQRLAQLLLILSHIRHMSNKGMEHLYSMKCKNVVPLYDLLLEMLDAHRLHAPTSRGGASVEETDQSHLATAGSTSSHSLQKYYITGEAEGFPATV
In words: MELN cell luciferase assay (estrogen-responsive reporter in MCF-7 cells). The class given is cell-based. How it is done: Selection of resistant clones by geneticin was performed at 1 mg/mL.
(§1) For strain cultures, cells were grown in phenol red containing Dulbecco’s modified Eagle medium, 1 g/L glucose, supplemented with 5% fetal calf serum (FCS), and 1% antibiotic (penicillin/streptomycin) in a 5% CO2 humidified atmosphere at 37°C.
Cells were seeded at a density of 5 × 10^4 cells/well in 96-well white opaque tissue culture plates (Becton Dickinson, Le Pont de Claix, France) in 150 μL test culture medium. Compounds to be tested were prepared 4× concentrated in the same medium and 50 μL was added per well 8 hr after seeding. Cells were incubated with compounds for 16 hr. Experiments were performed in quadruplicate and repeated twice. At the end of incubation, effector containing medium was removed and replaced by […], luciferin diffuses into the cell and produces a luminescent signal that is stable from 5 min on. […] The 96-well plate was then introduced in a microplate luminometer (Centro LB 960, Berthold Technologies), and intact living cell luminescence measured for 2 sec. Results are expressed as a percentage of maximum luciferase activity. […] GraphPad Software Inc., San Diego, CA, USA). […]

A further data set concerns the target T2, recombinant ER-α (Homo sapiens, UniProt P03372, C381S/C417S/C530S).
T2 construct: hER-αLBD(Lys302 → Pro552); made in house; host or cells: Escherichia coli BL21 DE3
T2 sequence (P03372 302-552 C381S/C417S/C530S): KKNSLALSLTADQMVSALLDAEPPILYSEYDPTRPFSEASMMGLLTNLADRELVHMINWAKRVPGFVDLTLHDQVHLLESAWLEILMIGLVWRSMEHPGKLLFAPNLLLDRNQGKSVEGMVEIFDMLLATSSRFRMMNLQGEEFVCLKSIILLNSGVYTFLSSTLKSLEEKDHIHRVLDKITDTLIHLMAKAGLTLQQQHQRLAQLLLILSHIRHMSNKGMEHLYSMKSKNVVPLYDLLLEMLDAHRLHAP
The class given is cell-based. Conditions: compound at concentration giving about 80% MELN transactivation, 1-100 nM recombinant ER-α. How it is done:
MELN cells were seeded in 96-well white opaque tissue culture plates as described above. In separate tubes, estrogenic compounds at nonsaturating concentration mediating about 80% MELN cell activity or 0.1% methanol extract for environmental samples, were prepared 4×-concentrated and preincubated with the same volume of 4×-concentrated purified recombinant ER-α(1–100 nM final concentration) in test culture medium at 4°C for 16 hr. Medium from MELN cell culture plates was then removed and replaced by 100 μL of test culture medium supplemented with the same volume of preincubation medium. After 6 hr incubation at 37°C, luciferase activity was determined.

The target of data set [2] is T1, ER-α. In kind it is cell-based. As to the method: Ten nanomoles of recombinant ER-αwere immobilized on 500 μL Ni-NTA-agarose phase. […] After rolling for 16 hr, flow-through and three 500-μL washings with WB were collected. Liganded receptor was then eluted with 3 × 500 μL EB, and eluate was heated at 65°C for 30 min in order to denature recombinant ER-α. Collected fractions were diluted 10-fold in culture medium before their relative estrogenic activity was evaluated with MELN reporter cells.
Flow-through (1.5 mL), washing, and elution fractions (500 μL) were collected. Precolumn and flow-through fractions were diluted 10-fold in culture medium before their relative activities were evaluated with MELN and HAhLP reporter cells. Washing and elution fractions were diluted 30-fold in culture medium to take into account the fact that they were 3× concentrated.

In another data set the target is T3, AhR (Homo sapiens, UniProt P35869).
T3 construct: The dioxin reporter cell line was obtained by transfecting HeLa cells with CYP1A1-Luc and pSG5-puro plasmids; endogenous in cells; host or cells: HAhLP (HeLa stably transfected with CYP1A1-Luc and pSG5-puro)
T3 sequence (P35869 11-848): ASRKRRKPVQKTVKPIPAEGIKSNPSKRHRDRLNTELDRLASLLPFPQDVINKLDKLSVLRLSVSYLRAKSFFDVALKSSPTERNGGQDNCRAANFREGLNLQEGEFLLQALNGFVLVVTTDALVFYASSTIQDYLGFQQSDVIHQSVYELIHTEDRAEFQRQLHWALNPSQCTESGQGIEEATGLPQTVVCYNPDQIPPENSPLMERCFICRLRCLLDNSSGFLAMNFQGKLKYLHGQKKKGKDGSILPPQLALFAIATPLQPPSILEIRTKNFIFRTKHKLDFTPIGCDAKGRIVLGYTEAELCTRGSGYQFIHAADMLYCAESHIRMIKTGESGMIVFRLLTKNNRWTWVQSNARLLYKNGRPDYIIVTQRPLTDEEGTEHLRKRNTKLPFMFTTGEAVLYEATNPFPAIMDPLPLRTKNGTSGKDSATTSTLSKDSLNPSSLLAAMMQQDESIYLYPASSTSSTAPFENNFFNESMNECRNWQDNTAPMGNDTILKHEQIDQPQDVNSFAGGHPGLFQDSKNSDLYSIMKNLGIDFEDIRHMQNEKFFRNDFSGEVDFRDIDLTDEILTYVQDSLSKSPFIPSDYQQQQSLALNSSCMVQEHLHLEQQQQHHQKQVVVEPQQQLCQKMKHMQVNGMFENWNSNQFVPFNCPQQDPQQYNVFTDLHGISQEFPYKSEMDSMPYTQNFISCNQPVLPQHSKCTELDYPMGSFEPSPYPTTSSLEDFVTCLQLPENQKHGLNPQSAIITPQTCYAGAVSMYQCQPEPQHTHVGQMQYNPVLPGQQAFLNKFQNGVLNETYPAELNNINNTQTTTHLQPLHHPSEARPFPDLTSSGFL
In words: HAhLP cell luciferase assay (CYP1A1-Luc reporter in HeLa cells). The conditions noted are these: read-out: EC50 value, induction of luciferase expression. The class given is cell-based. As to the method: The dioxin reporter cell line was obtained by transfecting HeLa cells with CYP1A1-Luc and pSG5-puro plasmids. Selection of resistant clones by puromycin was performed at 0.5 μg/mL. The most dioxin-responsive clone was denominated HAhLP 1.15. […].
as §1
Cells were seeded at a density of 5 × 10^4 cells/well in 96-well white opaque tissue culture plates (Becton Dickinson, Le Pont de Claix, France) in 150 μL test culture medium. Compounds to be tested were prepared 4× concentrated in the same medium and 50 μL was added per well 8 hr after seeding. Cells were incubated with compounds for 16 hr. Experiments were performed in quadruplicate and repeated twice. […] The 96-well plate was then introduced in a microplate luminometer (Centro LB 960, Berthold Technologies), and intact living cell luminescence measured for 2 sec. Results are expressed as a percentage of maximum luciferase activity. […]
Sediment and water methanol extracts were applied to MELN and HAhLP cells at 0.3% (vol/vol) maximal concentration in test culture medium, and luciferase transactivation was measured.

The target in data set [3] is T4, recombinant ER-α (hER-αLBD triple mutant) (Homo sapiens, UniProt P03372, C381S/C417S/C530S).
T4 sequence (P03372 302-552 C381S/C417S/C530S): T2 sequence (P03372 302-552 C381S/C417S/C530S)
The conditions noted are these: for RBA: ratio of IC50 values of E2 to competitor, E2 set at 100.

The target in data set [4] is T4, recombinant ER-α (hER-αLBD triple mutant). Briefly: biochemical.
Setting [5] is: ratio of EC50 values of E2 to compound, E2 set at 100.
Where [6] appears, read: half-maximal induction in MELN cell line, 16 hr, read-out: EC50 ± SE.
Setting [7] is: compound applied at 300 nM, 10 nM E2 = 100.
[8] abbreviates: compound applied at 3 nM, 10 nM E2 = 100.

Where two headings read alike, the source gives them in different places.

For the compound `C[C@H]1CCCC(=O)CCC/C=C/c2cc(O)cc(O)c2C(=O)O1` [Zearalenone, zearalenone], it took 0.313 nM to reach a half-maximal effect on ER-α [1] (EC50). For the same compound, the RTP at ER-α [1] (setting [5]) is reported as 5.62. Moreover, the “capture by recombinant ER-α / inhibition of transactivation” value at recombinant ER-α was “captured less efficiently than was E2”.
Turning to `O=S1(=O)OC(c2ccc(O)cc2)(c2ccc(O)cc2)c2ccccc21` [Phenol red, phenol red], the RTP at ER-α [1] stood at 0.00005. At ER-α [1] (setting [6]), the EC50 – broadly, the concentration giving half of the maximal effect – was 36900 nM. Besides, at ER-α [2], the “Induction of luciferase activity, Elution” value (“Induction … Elution” below) turned out to be 40 ± 4%; the “Induction of luciferase activity, Flow-through” value (“Induction … Flow-through” below) was 16 ± 2%; the “Induction of luciferase activity, Precolumn” value (“Induction … Precolumn” for short) turned out to be 36 ± 5%; the “Induction of luciferase activity, Washing” value (shortened to “Induction … Washing”) was determined as 15 ± 3%.
In the case of `ClC(Cl)=C(c1ccc(Cl)cc1)c1ccc(Cl)cc1` [4,4′-DDE], the EC50 at ER-α [1] (setting [6]) amounted to 25600 nM. Besides, the RTP at ER-α [1] (setting [5]) was found to be 0.00007.
For `CC(C)(c1ccc(O)cc1)c1ccc(O)cc1` [BPA, bisphenol A], on ER-α [2], the “Induction … Elution” value was determined as 70 ± 2%; the “Induction … Flow-through” value stood at 17 ± 2%; the “Induction … Precolumn” value is 70 ± 6%; the “Induction … Washing” value is listed as 16 ± 2%.
Take `Clc1cc2c(cc1Cl)Oc1cc(Cl)c(Cl)cc1O2` [dioxin]: the “activation of MELN cells” value on ER-α [1] (MELN cells) is “able to partially activate MELN cells”. Further, at AhR, the EC50 was 0.2 nM.
The compound `CCCCCCCCCc1ccc(O)cc1` [4-NP, 4n-nonylphenol] had an RTP on ER-α [1] of 0.00016. Further, the EC50 at ER-α [1] (setting [6]) was 11000 nM. Moreover, the RBA in data set [3] turned out to be 0.11. Also, in data set [4], the IC50 (commonly the concentration that gives 50% inhibition) came out at 5600 nM.
With `ClC(Cl)=C(c1ccc(Cl)cc1)c1ccccc1Cl` [2,4′-DDE], the EC50 at ER-α [1] (setting [6]) was determined as 2740 nM. For the same compound, on ER-α [1] (setting [5]), the RTP was 0.00063.
On to nonylphenol mixture [NPm], for which the EC50 at ER-α [1] (setting [6]) came out at 339 nM. Besides, the RTP at ER-α [1] (setting [5]) came to 0.0051. Besides, at ER-α [2] (setting [7]), the “Induction … Elution” value amounted to 56 ± 2%; the “Induction … Flow-through” value is given as 17 ± 1%; the “Induction … Precolumn” value is listed as 57 ± 4%; the “Induction … Washing” value came to 16 ± 2%. In addition, the RBA in data set [3] came out at 0.32. In addition, the IC50 in data set [3] (read-out: IC50 ± SE, 0.75 pmol recombinant ER-α, 2 nM [3H]-E2, 500 μL, 4°C 16 hr) turned out to be 1860 nM. The “capture by recombinant ER-α / inhibition of transactivation” value on recombinant ER-α is “only a slight or no inhibition”.
`C[C@H]1CCC[C@H](O)CCCCCc2cc(O)cc(O)c2C(=O)O1` [α -Zearalanol, α-zearalanol]: the 50% effective concentration (EC50) at ER-α [1] (setting [6]) was 0.135 nM. Moreover, at ER-α [1] (setting [5]), the RTP amounted to 13.0. At ER-α [2] (setting [8]), the “Induction … Elution” value is 82 ± 6%; the “Induction … Flow-through” value amounted to 17 ± 2%; the “Induction … Precolumn” value stood at 88 ± 2%; the “Induction … Washing” value is listed as 16 ± 1%.
